Activity calls are given as the source filed them.
Columns and labels:
[1] = molecular target: T1, High affinity choline transporter 1 (Homo sapiens, UniProt Q9GZV3); assay: CHT inhibitors, dose response, cell-based, 10-point CRC, membrane potential dye (AID 588401); format: functional;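 also: membrane potential dye fluorescence of choline-evoked depolarization via CHT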
T1 sequence (Q9GZV3 whole entry): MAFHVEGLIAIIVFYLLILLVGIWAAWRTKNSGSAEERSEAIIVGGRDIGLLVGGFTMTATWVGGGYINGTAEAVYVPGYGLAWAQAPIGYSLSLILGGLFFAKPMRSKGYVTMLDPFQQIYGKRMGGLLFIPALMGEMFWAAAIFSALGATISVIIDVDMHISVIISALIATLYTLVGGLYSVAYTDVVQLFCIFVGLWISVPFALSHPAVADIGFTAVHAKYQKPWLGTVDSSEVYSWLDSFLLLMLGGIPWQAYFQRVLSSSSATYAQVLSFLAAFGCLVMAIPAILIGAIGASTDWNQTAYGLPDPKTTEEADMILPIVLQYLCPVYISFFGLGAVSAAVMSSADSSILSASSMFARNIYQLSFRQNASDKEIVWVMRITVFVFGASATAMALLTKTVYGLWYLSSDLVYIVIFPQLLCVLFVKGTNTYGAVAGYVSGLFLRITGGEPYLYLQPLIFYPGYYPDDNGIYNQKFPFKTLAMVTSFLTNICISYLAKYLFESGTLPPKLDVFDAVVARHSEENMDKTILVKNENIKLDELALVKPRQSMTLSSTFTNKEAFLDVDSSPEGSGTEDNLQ

[2] = molecular target: T1, High affinity choline transporter 1; assay: CHT inhibitors, dose response, cell-based, 5-point CRC, membrane potential dye (AID 504840); format: functional
[3] = cytotoxicity in KRAS-transformed pancreatic duct cells, primary screen, cell-based, fluorescence, HTS (AID 431); format: functional; conditions: Homo sapiens;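 also: cell line used: HPDE-C7K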
[4] = molecular target: Protein disulfide-isomerase (Homo sapiens, UniProt P07237); assay: PDI inhibitors, insulin aggregation turbidity, dose response, biochemical, absorbance, cherry-picked samples (AID 602350); format: functional
Paired box protein Pax-8 = Paired box protein Pax-8 (Homo sapiens, UniProt Q06710); assay: inhibitors of PAX8-driven TPO luciferase reporter, dose response, RMG-I cells, cherry-pick (AID 687027); format: functional, cell-based;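 also: luciferase reporter driven by Pax8 target thyroperoxidase promoter measured by SteadyGlo luminescence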
[5] = cytotoxicity in HPDE-C7 cells, cell-based, fluorescence, HTS (AID 430); format: functional; conditions: Homo sapiens
[6] = inhibitors of PGC1a acetylation in cells, dose response, cell-based, cherry-picked samples (AID 720514); format: functional;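 also: potency may reflect raised or lowered acetylation signal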
Orexin receptor type 2 [7] = molecular target: T2, Orexin receptor type 2 (Homo sapiens, UniProt O43614); assay: Counterscreen assay for antagonists of the orexin 1 receptor (OX1R; HCRTR1): Fluorescence-based cell-based dose response assay for antagonists of the orexin 2 receptor (OX2R; HCRTR2), run by assay provider.; format: functional
T2 sequence (O43614 whole entry): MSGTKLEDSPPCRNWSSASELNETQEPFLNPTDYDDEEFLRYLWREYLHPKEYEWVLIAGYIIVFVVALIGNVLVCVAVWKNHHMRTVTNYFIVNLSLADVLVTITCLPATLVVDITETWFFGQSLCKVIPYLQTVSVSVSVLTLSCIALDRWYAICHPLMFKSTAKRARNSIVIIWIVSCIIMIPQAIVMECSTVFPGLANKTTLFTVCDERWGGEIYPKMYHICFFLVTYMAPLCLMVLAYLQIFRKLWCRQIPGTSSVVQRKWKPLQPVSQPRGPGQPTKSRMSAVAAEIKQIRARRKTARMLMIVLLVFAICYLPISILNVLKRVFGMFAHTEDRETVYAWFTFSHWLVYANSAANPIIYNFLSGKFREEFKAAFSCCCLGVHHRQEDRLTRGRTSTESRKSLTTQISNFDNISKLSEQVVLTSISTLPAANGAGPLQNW

Beta Lactamase = Beta Lactamase (Pseudomonas aeruginosa, UniProt Q932Y6); assay: beta-lactamase reporter inhibitor potency, dose response, artefact control for TLR9-MyD88 binding inhibitor project, BLA reporter cells, FRET fluorescence (AID 588341); format: cell-based;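 also: cell based assay in CHO-K1 cells stably expressing beta-lactamase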
[8] = (§1) Counterscreen for antagonists of the orexin 1 receptor (OX1R; HCRTR1): Fluorescence-based cell-based high throughput dose response assay to identify antagonists of the parental CHO cell line. [Related pubchem assays (depositor defined):AID434989, AID435008, AID463079, AID485270, AID492963, AID492964, AID492965, AID493232, AID504699, AID504701]; format: functional
[9] = cytotoxicity toward DRD oncogenic fibroblasts, dose response, cell-based, non-viral oncogenic, luminescence (AID 1934); format: functional; conditions: Homo sapiens
BJ [10] = assay: cells; format: functional, cell-based; conditions: Homo sapiens
CHO = assay: cytotoxicity in TLR9-MyD88 CHO cells, dose response, cytotoxicity control for TLR9-MyD88 binding inhibitor project, cell-based, luminescence (AID 588339); format: functional, hamster; conditions: Cricetulus griseus;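 also: CHO cells stably coexpressing TLR9 and MyD88 fusions from primary screen; compound exposure lasted 48 hours before viability readout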
[11] = molecular target: T3, Orexin/Hypocretin receptor type 1 (Homo sapiens, UniProt O43613); assay: Homogeneous Time Resolved Fluorescence (HTRF)-based cell-based high throughput dose response assay for antagonists of the orexin 1 receptor (OX1R; HCRTR1). [Related pubchem assays (depositor defined):AID434989, AID435008, AID463079, AID485270, AID492963, AID492964, AID492965, AID493232, AID504717, AID504718]; format: functional
T3 sequence (O43613 whole entry): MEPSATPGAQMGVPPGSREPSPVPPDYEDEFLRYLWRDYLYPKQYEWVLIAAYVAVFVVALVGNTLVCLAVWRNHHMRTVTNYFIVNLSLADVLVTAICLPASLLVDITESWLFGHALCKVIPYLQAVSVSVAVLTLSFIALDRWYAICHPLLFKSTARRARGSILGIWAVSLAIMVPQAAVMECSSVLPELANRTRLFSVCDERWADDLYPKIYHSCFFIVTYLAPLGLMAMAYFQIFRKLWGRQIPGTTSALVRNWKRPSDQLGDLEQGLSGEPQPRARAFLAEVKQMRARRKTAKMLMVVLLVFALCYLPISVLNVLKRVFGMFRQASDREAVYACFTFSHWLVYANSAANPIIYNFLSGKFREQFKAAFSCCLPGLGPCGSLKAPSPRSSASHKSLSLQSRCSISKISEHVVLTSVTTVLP

Orexin receptor type 2 [12] = molecular target: T2, Orexin receptor type 2; assay: Counterscreen assay for antagonists of the orexin 1 receptor (OX1R; HCRTR1): Homogeneous Time Resolved Fluorescence (HTRF)-based cell-based dose response assay for antagonists of the orexin 2 receptor (OX2R; HCRTR2), run by assay provider.; format: functional
BJ [13] = assay: cytotoxicity toward BJ-TERT fibroblasts, dose response, cell-based, RAS-independent, luminescence (AID 1933); format: functional; conditions: Homo sapiens
[14] = molecular target: T3, Orexin/Hypocretin receptor type 1; assay: Fluorescence-based cell-based high throughput dose response assay for antagonists of the orexin 1 receptor (OX1R; HCRTR1). [Related pubchem assays (depositor defined):AID434989, AID435008, AID463079, AID485270, AID492963, AID492964, AID492965, AID493232, AID504717, AID504718]; format: functional
CHO-K1 = assay: as §1, with “Homogeneous time resolved fluorescence (HTRF)-based” for “Fluorescence-based”, “cell-based” for “cell-based high throughput”, “CHO-K1” for “CHO”; format: functional; conditions: Cricetulus griseus;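 also: potency for inhibition of ATP-stimulated IP1 production as antagonists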
cells = format: functional
[15] = Vero cell cytotoxicity, cytotoxicity control for M. tuberculosis inhibitor project, purified and synthesized samples, set 3 (AID 504684); format: functional
BJ [16] = assay: cytotoxicity toward BJ-TERT-LT-ST fibroblasts, dose response, cell-based, RAS-independent, luminescence (AID 1935); format: functional; conditions: Homo sapiens;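 also: BJ fibroblasts immortalized with TERT plus LT and ST oncogenes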

Sequence of Protein disulfide-isomerase (P07237 whole entry): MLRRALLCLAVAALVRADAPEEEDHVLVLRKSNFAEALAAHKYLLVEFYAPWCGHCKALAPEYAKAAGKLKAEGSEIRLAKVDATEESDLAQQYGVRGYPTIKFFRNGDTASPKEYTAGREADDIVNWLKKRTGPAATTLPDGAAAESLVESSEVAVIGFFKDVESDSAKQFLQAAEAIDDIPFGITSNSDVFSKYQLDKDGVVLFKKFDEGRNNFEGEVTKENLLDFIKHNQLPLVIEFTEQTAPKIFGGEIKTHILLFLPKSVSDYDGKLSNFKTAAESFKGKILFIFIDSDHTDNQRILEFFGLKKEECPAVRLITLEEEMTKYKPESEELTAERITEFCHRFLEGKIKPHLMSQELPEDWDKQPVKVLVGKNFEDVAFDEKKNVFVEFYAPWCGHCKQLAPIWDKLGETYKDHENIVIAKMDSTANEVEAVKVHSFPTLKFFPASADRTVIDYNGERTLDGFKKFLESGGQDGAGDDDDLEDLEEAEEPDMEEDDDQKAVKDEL
Sequence of Beta Lactamase (Q932Y6 whole entry): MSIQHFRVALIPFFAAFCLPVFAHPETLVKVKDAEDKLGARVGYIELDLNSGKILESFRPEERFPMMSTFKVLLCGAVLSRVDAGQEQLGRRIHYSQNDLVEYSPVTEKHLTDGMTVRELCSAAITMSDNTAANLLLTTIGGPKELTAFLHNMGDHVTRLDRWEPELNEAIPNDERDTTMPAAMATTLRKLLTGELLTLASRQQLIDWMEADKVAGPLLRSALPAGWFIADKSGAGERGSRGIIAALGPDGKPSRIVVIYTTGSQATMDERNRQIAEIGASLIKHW
Sequence of Paired box protein Pax-8 (Q06710 whole entry): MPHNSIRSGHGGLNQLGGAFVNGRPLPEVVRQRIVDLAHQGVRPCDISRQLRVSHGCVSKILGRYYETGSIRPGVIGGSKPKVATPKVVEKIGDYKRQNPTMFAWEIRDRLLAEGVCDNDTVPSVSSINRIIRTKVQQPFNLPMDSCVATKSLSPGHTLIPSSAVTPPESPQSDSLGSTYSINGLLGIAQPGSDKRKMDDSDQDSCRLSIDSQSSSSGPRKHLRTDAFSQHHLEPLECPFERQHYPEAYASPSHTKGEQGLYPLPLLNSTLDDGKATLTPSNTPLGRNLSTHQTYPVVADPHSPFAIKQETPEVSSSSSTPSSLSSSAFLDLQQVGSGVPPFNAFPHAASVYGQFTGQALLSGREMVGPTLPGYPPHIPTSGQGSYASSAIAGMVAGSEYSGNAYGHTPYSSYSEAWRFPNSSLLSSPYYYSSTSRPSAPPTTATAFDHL

CCOCCn1c(CN2CCN(c3ccc(F)cc3)CC2)nc2c1c(=O)n(C)c(=O)n2C
active: IC50 [1] 4.01 µM | IC50 [2] 7.77 µM

Cc1ccc(S(=O)(=O)CCC(=O)c2ccc(O)cc2O)cc1
active: EC50 [3] 8.8 µM | AC50 [4] 15.6 µM | AC50 (Paired box protein Pax-8) 4.59 µM | EC50 [5] 9.12 µM

Cn1cnnc1Sc1ccc(/C=C/C(=O)c2ccc(O)cc2)cc1[N+](=O)[O-]
active: AC50 [4] 0.422 µM | AC50 [6] 8.44 µM

CCN(CC)c1ccc2cc(-c3nc4ccccc4n3C)c(=O)oc2c1
active: IC50 (Beta Lactamase) 2.56 µM | EC50 [9] 0.185 µM | EC50 (BJ [10]) 0.345 µM | IC50 [11] 1.14 µM | EC50 (BJ [13]) < 0.12 µM | IC50 [14] 1.77 µM
inactive: IC50 (Orexin receptor type 2 [7]) 32 µM | IC50 [8] > 49.8 µM | IC50 (CHO) 29.4 µM | IC50 (Orexin receptor type 2 [12]) > 50 µM | IC50 (CHO-K1) > 66.2 µM

COC(=O)CCc1nc2c(C#N)c(-c3ccc(Cl)cc3)ccn2n1
active: IC50 (cells) 5.43 µM | CC50 [15] > 100 µM

Cc1ccc(Cl)c(NC(=O)COC(=O)c2ccccc2C(=O)c2ccc(Cl)c([N+](=O)[O-])c2)c1Cl
inconclusive: EC50 (BJ [16]) 3.87 µM | EC50 (BJ [10]) 16.8 µM
inactive: IC50 (Beta Lactamase) > 49.8 µM | IC50 (CHO) 12.6 µM
active: EC50 [9] 7.58 µM | EC50 (BJ [13]) 2.71 µM
